# How the values were obtained:
# [1] = Brain delivery of AF680-labeled test molecules after IV injection, 3D confocal microscopy of brain sections; type: in vivo, Balb/c mice
# Protocol: Test molecules were intravenously injected (via tail vein) in Balb/c mice and 1 hour later the animals were sacrificed as follows: Prior to euthanasia, mice were injected (i.v.) with tomato Lectin-Texas Red ([…]) for 10 min to stain the brain vasculature. Blood was cleared by intracardiac perfusion of 10 ml heparinized saline (1 ml/min). Brains were excised and frozen on dry ice and stored at −80° C. Brains were mounted in Tissue Tek and sectioned ([…], 3 sections/brain) with a cryostat at −2° C. Sections (n=3/brain) were mounted on Superfrost Plus microscope slides, fixed in cold Acetone/MeOH (1:1) for 10 min at RT, and then washed with PBS. Glass coverslips were mounted on sections using Prolong Gold antifade reagent with DAPI (Molecular probes, P36931). 3D confocal microscopy was performed (4 random fields per section were captured).
# Signals for all the sections were calibrated with respect to the PBS control group in order to observe only minimal (but not completely null) AF680 fluorescent signal in those sections (see FIG. 4A).
# [2] = test system: mouse model of middle cerebral artery occlusion (MCAO); assay: Infarct volume analysis (TTC staining) in mouse model of middle cerebral artery occlusion (MCAO); type: in vivo, C57/Bl6 mice; settings: pretreated 3 times with 30 mg/kg IV, 1 hour MCAO, 24 hours post reperfusion
# Protocol: The NOX4 gene-targeted p97-siRNA conjugates from Example 1 were tested for their ability to provide neuroprotection in a mouse model of middle cerebral artery occlusion (MCAO) (see, e.g., Chang et al., J Vis Exp. 2761:2011; Althenhöfer et al., Cell. Mol. Life Sci. 69:2327-2343, 2012; and Kleinschnitz et al., PLoS Biol. 8(9):e1000479, 2010).
# C57/Bl6 mice were pretreated 3 times (1 hour interval between each injection) with either PBS or 30 mg/kg of siRNA alone or p97-siRNA via intravenous (IV) injection. Animals were subjected to stroke via MCAO about 1 hour following the last injection, as follows. The external and internal carotid arteries (ECA and ICA, respectively) were dissected and isolated and the common carotid artery (CCA) ligated. An […] 8-0 nylon thread coated in dental silicone was inserted into a small hole in the ECA towards the bifurcation of the CCA. […]
# When the TTC staining was completed, infarct size was measured by a colorimetric staining method. […]
# Absorbance was measured at 485 nm in a spectrophotometer and the values were averaged. Percentage loss in brain TIC staining in the ischemic side of the brain was compared with the contralateral side of the brain of the same animal using the following equation: % loss=100×(1−absorbance of ischemic hemisphere/absorbance of contralateral hemisphere)
substance,measurement,setting,value
"siRNA^AF680: negative control: unconjugated NOX4 antisense strand annealed to the AF680-labeled sense strand (antisense AUGUUCACAAAGUCAGGUCTT; sense GACCUGACUUUGUGAACAUTT; sense strand linked to Alexa Fluor 680 via linker, end not given here, further chemistry not given here)",AF680 signal in the vasculature,"[1]; 10.0 mg/kg IV via tail vein, 1 h, Balb/c mice, brain sections",no AF680 signal was observed
same,perinuclear AF680 signal in the brain parenchyma,"[1]; 10.0 mg/kg IV via tail vein, 1 h, Balb/c mice, signals calibrated to PBS control",not detected
same,"AF680 (red) staining in brain tissues (immunofluorescence imaging, FIGS. 4A-4D)","[1]; mice, following intravenous administration",no AF680 (red) staining
same,infarct areas / infarct volume in the brain,[2],large infarct areas

# — patent US10058619B2, “P97-polynucleotide conjugates” (biOasis Technologies, Inc., priority 2014, dated 2018)
